The values below come from patent US20110009435A1, “HETERO BICYCLIC CARBOXAMIDE DERIVATIVES AND THEIR PHARMACEUTICAL USE AND COMPOSITIONS” (Pfizer, Inc., priority 2007, published 2011).

For one assay, the target named is T1, Human recombinant MMP-13 (Homo sapiens, UniProt P45452).
T1 construct: made in house; host or cells: baculovirus expression (insect cells)
Briefly: In vitro MMP inhibition assay, MMP-13 (fluorogenic peptide substrate cleavage, Ki). The class given is biochemical. As to conditions: human MMP-13, full length (FL); read-out: hMMP Ki 13/FL. The protocol: (§1) Matrix Metalloproteinase inhibitor compounds were analyzed in in vitro MMP Inhibition assays to determine their ability to inhibit the MMP cleavage of peptide substrates. Inhibition constants (Ki) were calculated from the assayed compound-MMP interactions.
(§2) Human recombinant MMP-1, MMP-2, MMP-3, MMP-7, MMP-9, MMP-12, MMP-13, MMP-14 and MMP-15 were used in these assays. The enzymes are prepared following known laboratory procedures. Protocols for the preparation and use of these enzymes are available in the scientific literature. See, e.g., Enzyme Nomenclature (Academic Press, San Diego, Calif., 1992) and the citations therein. See also Frije et al., J. Biol. Chem., 26(24), 16766-73 (1994).
The MMP-13 may be obtained as a proenzyme from a full-length cDNA clone using baculovirus expression, as described by V. A. Luckow, “Insect Cell Expression Technology,” Protein Engineering: Principles and Practice, pp. 183-218 (edited by J. L. Cleland et al., Wiley-Liss, Inc., 1996). The expressed proenzyme was first purified over a heparin agarose column, and then over a chelating zinc chloride column. Further details on baculovirus expression systems may be found in, for example, Luckow et al., J. Virol., 67, 4566-79 (1993). See also O'Reilly et al, Baculovirus Expression Vectors: A Laboratory Manual (W. H. Freeman and Co., New York, N.Y., 1992). See also King et al., The Baculovirus Expression System: A Laboratory Guide (Chapman & Hall, London, England, 1992).
All full length MMPs were activated using 4-aminophenylmercuric acetate (“APMA”, Sigma Chemical, St. Louis, Mo.) or trypsin. MMP-9 also was activated using human recombinant MMP-3 following standard cloning and purification techniques.
The fluorogenic, methoxycoumarin-containing polypeptide substrate MCA-ArgProLeuGlyLeuDpaAlaArgGluArgNH2 was used as the MMP substrate in the MMP inhibition assays for human recombinant MMP-1, MMP-2, MMP-7, MMP-9, MMP-12, MMP-13, MMP-14 and MMP-15. Here, “MCA” is 7-methoxycoumarin-4-yl acetyl and “Dpa” is 3-(2,4-dinitrophenyl)-L-2,3-di-aminopropionyl group. In the absence of MMP inhibitory activity, the substrate is cleaved at the Gly-Leu peptide bond. The cleavage separates the highly fluorogenic peptide from the 2,4-dinitrophenyl quencher, resulting in an increase of fluorescent intensity.
For the human MMP-1, MMP-2, MMP-7, MMP-9, MMP-12, MMP-13, MMP-14 and MMP-15 assays, dilutions of the inhibitors (or salts thereof) were prepared in 100% dimethyl sulfoxide (DMSO). The stock solutions were diluted in Buffer A (100 mM Tris-HCl, 100 mM NaCl, 10 mM CaCl2, 0.005% polyoxyethylene 23 lauryl ether, pH 7.5) to obtain solutions with different compound concentrations, i.e., assay solutions with different concentrations of the assayed MMP inhibitory compound in 1% DMSO. The experiment controls contained the same amount of Buffer A/DMSO as the assayed sample, but contained no inhibitor.
(§3) To determine Ki, the inhibitor samples are incubated at room temperature for 1 hr in the presence of enzyme and then 4 μM of appropriate MMP substrate was added, and samples were analyzed on a Tecan SpectraFlour Plus plate reader. The excitation wavelength is 330 nm, and the emission (fluorescence) wavelength is 420 nm. In the absence of MMP inhibitory activity, the substrate is cleaved at the Gly-Leu bond resulting in an increase of relative fluorescence. Inhibition is observed as a reduced rate of increase in relative fluorescence.
The inhibitors are analyzed using a single low enzyme concentration with a single substrate concentration fixed at or below the Km. This protocol is a modification of method by Knight et al., FEBS Lett., 296(3), 263-266 (1992). Apparent inhibitory constants are determined by non-linear regression of reaction velocity as a function of inhibitor and enzyme concentration using Morrison's equation, as described by Kuzmic, Anal. Biochem. 286, 45-50 (2000). […]

The target of assay [1] is T2, catalytic domain of human recombinant MMP-3 (Homo sapiens, UniProt P08254).
T2 construct: made in house
T2 sequence (P08254 100-272 limits assumed): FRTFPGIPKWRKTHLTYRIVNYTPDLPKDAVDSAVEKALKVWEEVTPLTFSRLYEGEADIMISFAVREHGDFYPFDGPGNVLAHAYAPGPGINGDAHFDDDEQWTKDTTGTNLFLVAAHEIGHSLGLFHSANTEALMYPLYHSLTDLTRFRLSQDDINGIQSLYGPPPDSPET
The assay can be described thus: In vitro MMP inhibition assay, MMP-3 catalytic domain (fluorogenic peptide substrate cleavage, Ki). The class given is biochemical. As to conditions: human MMP-3, catalytic domain (CD); read-out: hMMP Ki 03/CD. As for the experimental part:
as §1, §2
The catalytic domain MMP-3 cDNA may be used to express the catalytic domain enzyme in E. coli inclusion bodies. Then the enzyme is solubilized in urea, purified on a preparative […] reverse phase HPLC column, and refolded in the presence of zinc acetate and purified for use.
The fluorogenic, methoxycoumarin-containing polypeptide substrate Mca-Arg-Pro-Lys-Pro-Val-Glu-Nva-Trp-Arg-Lys(Dnp)-NH2 (Bachem catalog number M-2110) was used as the MMP substrate in the MMP inhibition assays for catalytic domain of human recombinant MMP-3 (which refers to the catalytic domain of stromelysin). Here, “MCA” is 7-methoxycoumarin-4-yl acetyl and “Dpa” is 3-(2,4-dinitrophenyl)-L-2,3-di-aminopropionyl group. In the absence of MMP inhibitory activity, the substrate is cleaved at the Gly-Leu peptide bond. The cleavage separates the highly fluorogenic peptide from the 2,4-dinitrophenyl quencher, resulting in an increase of fluorescent intensity.
For the human MMP-3 assay, dilutions of the inhibitors (or salts thereof) were prepared in 100% DMSO. The stock solutions were diluted in Buffer B (50 mM N-morpholinoethane sulfonate (“MES”), 100 mM NaCl, 10 mM CaCl2, 0.005% polyoxyethylene 23 lauryl ether, pH 6.0)) to obtain solutions with different compound concentrations, i.e., assay solutions with different concentrations of the assayed MMP inhibitory compound in 1% DMSO. The experiment controls contained the same amount of Buffer B/DMSO as the assayed sample, but contained no inhibitor.
as §3
The inhibitors are analyzed using a single low enzyme concentration with a single substrate concentration fixed at or below the Km. This protocol is a modification of method by Knight et al., FEBS Lett., 296(3), 263-266 (1992). Apparent inhibitory constants are determined by non-linear regression of reaction velocity as a function of inhibitor and enzyme concentration using Morrison's equation, as described by Kuzmic, Anal. Biochem. 286, 45-50 (2000). Modifications were made in the non-linear regression method to allow a common control reaction rate and effective enzyme concentration to be shared between all dose-response relationships on a given assay plate. Since the substrate concentration was chosen to be at or below the Km, the apparent Ki's from this analysis were reported as Ki's without correction for the influence of substrate.

Turning to `COc1cccc(CNC(=O)c2nc3ccc(F)c(OCCC4CCN(CCO)CC4)c3c(=O)[nH]2)c1` [Example 35, 6-fluoro-5-{2-[1-(2-hydroxyethyl)piperidin-4-yl]ethoxy}-N-(3-methoxybenzyl)-4-oxo-3,4-dihydroquinazoline-2-carboxamide], the results for the Ki (on Human recombinant MMP-13; in assay [1]) were 4.15 nM and 5200 nM, respectively.
For the molecule `COc1cccc(CNC(=O)c2nc3scc(COC[C@H]4CC[C@H](CO)CC4)c3c(=O)[nH]2)c1` [Example 4, N-(3-methoxybenzyl)-5-(((trans-4-(hydroxymethyl)cyclohexyl)methoxy)methyl)-4-oxo-3,4-dihydrothieno[2,3-d]pyrimidine-2-carboxamide], the results for the Ki (on Human recombinant MMP-13; in assay [1]) were 0.471 nM and 337 nM, respectively.
For `COc1cc(CNC(=O)c2nc3scc(COC[C@H]4CC[C@H](C#N)CC4)c3c(=O)[nH]2)ccc1F` [Example 14, N-(4-Fluoro-3-methoxybenzyl)-5-(((trans-4-cyanocyclohexyl)methoxy)methyl)-4-oxo-3,4-dihydrothieno[2,3-d]pyrimidine-2-carboxamide], in that order: 0.479 nM and 350 nM.
Consider `COc1cccc(CNC(=O)c2nc3ccc(F)c(OCCC4CCN(S(C)(=O)=O)CC4)c3c(=O)[nH]2)c1` [Example 31, 6-fluoro-N-(3-methoxybenzyl)-5-{2-[1-(methylsulfonyl)piperidin-4-yl]ethoxy}-4-oxo-3,4-dihydroquinazoline-2-carboxamide], for which the Ki at Human recombinant MMP-13 worked out at 0.085 nM; in assay [1] it was 1280 nM.
With `COc1cc(CNC(=O)c2nc3scc(COC[C@H]4CC[C@H](C(=O)O)CC4)c3c(=O)[nH]2)ccc1F` [Example 10, Trans-4-(((2-((4-Fluoro-3-methoxybenzyl)carbamoyl)-4-oxo-3,4-dihydrothieno[2,3-d]pyrimidin-5-yl)methoxy)methyl)cyclohexanecarboxylic acid], the Ki stood at 0.143 nM at Human recombinant MMP-13 and 163 nM in assay [1].
For `COc1cccc(CNC(=O)c2nc3scc(COC[C@H]4CC[C@H](NC(C)=O)CC4)c3c(=O)[nH]2)c1` [Example 17, 5-({[trans-4-(Acetylamino)cyclohexyl]methoxy}methyl)-N-(3-methoxybenzyl)-4-oxo-3,4-dihydrothieno[2,3-d]pyrimidine-2-carboxamide], in that order: 1.62 nM and 656 nM.
For `COc1cc(CNC(=O)c2nc3scc(COC[C@H]4CC[C@H](NC(=O)CO)CC4)c3c(=O)[nH]2)ccc1F` [Example 23, N-(4-Fluoro-3-methoxybenzyl)-5-((((trans-1,4)-4-(2-hydroxyacetamido)cyclohexyl)methoxy)methyl)-4-oxo-3,4-dihydrothieno[2,3-d]pyrimidine-2-carboxamide], in that order: 0.582 nM and 453 nM.
Turning to `COc1cc(CNC(=O)c2nc3scc(COC[C@H]4CC[C@H](C(N)=O)CC4)c3c(=O)[nH]2)ccc1F` [Example 13, N-(4-Fluoro-3-methoxybenzyl)-5-(((trans-4-carbamoylcyclohexyl)methoxy)methyl)-4-oxo-3,4-dihydrothieno[2,3-d]pyrimidine-2-carboxamide], the Ki on Human recombinant MMP-13 stood at 0.141 nM; in assay [1], 258 nM.
For `COc1cccc(CNC(=O)c2nc3scc(COC[C@@H]4CO[C@@H](C(=O)O)CO4)c3c(=O)[nH]2)c1` (relative stereo) [Example 8, Trans-5-(((2-((3-Methoxybenzyl)carbamoyl)-4-oxo-3,4-dihydrothieno[2,3-d]pyrimidin-5-yl)methoxy)methyl)-1,4-dioxane-2-carboxylic acid], in that order: 4.16 nM and 1310 nM.
For `COc1cc(CNC(=O)c2nc3scc(COC[C@@H]4CO[C@@H](CO)CO4)c3c(=O)[nH]2)ccc1F` (relative stereo) [Example 11, N-(4-Fluoro-3-methoxybenzyl)-5-(((trans-5-(hydroxymethyl)-1,4-dioxan-2-yl)methoxy)methyl)-4-oxo-3,4-dihydrothieno[2,3-d]pyrimidine-2-carboxamide], the Ki at Human recombinant MMP-13 was 11 nM; in assay [1], 663 nM.
For `COc1cccc(CNC(=O)c2nc3ccc(F)c(OCCC4CCNCC4)c3c(=O)[nH]2)c1` [Example 30, 6-fluoro-N-(3-methoxybenzyl)-4-oxo-5-(2-piperidin-4-ylethoxy)-3,4-dihydroquinazoline-2-carboxamide], in that order: 1.91 nM and 9420 nM.
For `COc1cc(CNC(=O)c2nc3scc(COC[C@@H]4CO[C@@H](C(N)=O)CO4)c3c(=O)[nH]2)ccc1F` (relative stereo) [Example 15, N-(4-Fluoro-3-methoxybenzyl)-5-(((trans-5-carbamoyl-1,4-dioxan-2-yl)methoxy)methyl)-4-oxo-3,4-dihydrothieno[2,3-d]pyrimidine-2-carboxamide], in that order: 4.04 nM and 960 nM.
